In patent US8119683B2, “Aryl substituted sulfonamide compounds and their use as anticancer agents” (Taipei Medical University, priority 2009, dated 2012):
Where two headings read alike, the source gives them in different places.

Legend:
[1] = tested on: Human oral epidermoid carcinoma KB cells; experiment: Cell growth inhibition assay (methylene blue dye), KB cells; assay type: cell-based
Experimental: (§1) Anticancer activities of the aryl substituted sulfonamide compounds synthesized in the above examples were evaluated by testing their inhibitory effects on mammalian cancer cell growth.
(§2) Human oral epidermoid carcinoma KB cells, non small cell lung carcinoma H460 cells, colorectal carcinoma HT29 cells, and stomach carcinoma MKN45 cells were maintained in RPMI-1640 medium supplied with 5% fetal bovine serum. The cells were treated with the test compound at various concentrations for 72 h.

[2] = tested on: non small cell lung carcinoma H460 cells; experiment: Cell growth inhibition assay (methylene blue dye), H460 cells; assay type: cell-based; conditions: Homo sapiens, NCI-H460, 72 h, read-out: Cell type (IC50 ± SD, nM) H460 (lung)
Experimental: as §1, §2

[3] = tested on: stomach carcinoma MKN45 cells; experiment: Cell growth inhibition assay (methylene blue dye), MKN45 cells; assay type: cell-based; conditions: Homo sapiens, MKN-45, 72 h, read-out: Cell type (IC50 ± SD, nM) MKN45 (stomach)
Experimental: as §1, §2

[4] = tested on: KB-VIN10 cells; experiment: Cell growth inhibition assay on multidrug resistant KB-VIN10 cells; assay type: cell-based; conditions: Homo sapiens
Experimental: (§3) Cell in logarithmic phase were cultured at a density of 5000 cells/mL/well in a 24-well plate. KB-VIN10 cells were cultured in a medium free of test compound for 3 days prior to use. The cells were treated with the test compound at various concentrations for 72 h. The effect of the test compound on cell growth was evaluated using the methylene blue dye assay. […] KB-CPT100 and KB-CPT300 cells were generated by camptothecin-driven selection. […] (See Liou, J. P. et al J. Med. Chem. 2004, 47, 4247-4257 and Kuo, C. C. et al. Cancer Res. 2004, 64, 4621-4628.) Anticancer activities of the aryl substituted sulfonamide compounds synthesized in the above examples were evaluated by testing their inhibitory effects on these drug-resistant cell lines. Compound 24 was tested in this assay.

[5] = tested on: non-small-cell lung cancer A549 cells; experiment: Cell growth inhibition assay, A549 cells; assay type: cell-based; conditions: Homo sapiens
Experimental: (§4) Human oral epidermoid carcinoma KB cells, non small cell lung carcinoma H460 cells, colorectal carcinoma HT29 cells, and stomach carcinoma MKN45 cells were maintained in RPMI-1640 medium supplied with 5% fetal bovine serum. The cells were treated with the test compound at various concentrations for 72 h. The effect of the test compound on cell growth was evaluated using a methylene blue dye assay similar to that described in Baguley et al., Anal Biochem, 1984, 139: 272-277. […] Compounds 16, 17, and 24 were tested on these three cell lines using methylene blue dye assay. ABT-751 was used as positive control (which was synthesized with the method described in Yoshino et al., J. Med. Chem. 1992, 35, 2496-2497; descriptions of ABT-751 can also be found in Koyanagi et al., Cancer Res. 1994, 54, 1702-1706; Yee et al., Cancer Res. 2005, 11, 6615-6624; and Mauer, et al., J. Thorac. Oncol. 2008, 3, 613-636).
(§5) Further, Compound 24 was tested on non-small-cell lung cancer A549 and H1299 cells, colorectal carcinoma HT29, and normal human umbilical vein endothelial cells (HUVECs).

[6] = tested on: non-small-cell lung cancer H1299 cells; experiment: Cell growth inhibition assay, H1299 cells; assay type: cell-based; conditions: Homo sapiens, NCI-H1299
Experimental: as §4, §5

[7] = tested on: colorectal carcinoma HT29 cells; experiment: Cell growth inhibition assay, HT29 cells; assay type: cell-based; conditions: Homo sapiens, HT-29
Experimental: as §4, §5

[8] = tested on: normal human umbilical vein endothelial cells (HUVECs); experiment: Cell growth inhibition assay, normal HUVECs; assay type: cell-based; conditions: HUVEC
Experimental: as §4, §5

[9] = tested on: KB-TAX50 cells; experiment: Cell growth inhibition assay on drug-resistant KB-TAX50 cells; assay type: cell-based; conditions: Homo sapiens; KB-TAX50, Paclitaxel resistance
Experimental: as §3, with “dye assay. […] Compounds 16 and 24 were tested in this” for “dye”

[10] = tested on: KB-7D cells; experiment: Cell growth inhibition assay on drug-resistant KB-7D cells; assay type: cell-based; conditions: Homo sapiens, KB7D, Etoposide resistance
Experimental: as §3, with “dye assay. […] Compounds 16 and 24 were tested in this” for “dye”

[11] = tested on: KB-L30 cells; experiment: Cell growth inhibition assay on drug-resistant KB-L30 cells; assay type: cell-based; conditions: Homo sapiens; KB-L30, BPR0L075 resistance
Experimental: as §3, with “dye assay. […] Compounds 16 and 24 were tested in this” for “dye”

[12] = tested on: KB-CPT100 cells; experiment: Cell growth inhibition assay on drug-resistant KB-CPT100 cells; assay type: cell-based; conditions: Homo sapiens, KBCPT100; KB-CPT100, Camptothecin resistance
Experimental: as §3, with “dye assay. […] Compounds 16 and 24 were tested in this” for “dye”

[13] = tested on: KB-CPT300 cells; experiment: Cell growth inhibition assay on drug-resistant KB-CPT300 cells; assay type: cell-based; conditions: Homo sapiens; KB-CPT300, Camptothecin resistance
Experimental: as §3, with “dye assay. […] Compounds 16 and 24 were tested in this” for “dye”

[14] = tested on: Human umbilical vein endothelial cells (HUVECs); experiment: Cellular network (tube) formation inhibition assay; assay type: cell-based
Experimental: (i) Cellular Network Formation Inhibition Assay
Each well of a 96-well plate was coated with an extracellular matrix containing collagen for 1 hr to allow the gel to solidify. Human umbilical vein endothelial cells (HUVECs) suspension was prepared at a concentration of 1×10^5 cells/mL in M199 medium supplemented with endothelial cell growth supplements with 20% FBS. Then, 100 μl of the cell suspension was added to each gel-coated well of the plate. Cells were incubated with or without a test compound for 18 hrs at 37° C. Without the test compound, a cellular network structure was fully developed after 12-18 hrs of incubation. The number of tubes formed was counted using light microscopy at 200× magnification.

[15] = tested on: VEGF165; experiment: VEGF production inhibition assay (ELISA); assay type: cell-based; conditions: Homo sapiens, medium of the HUVEC network assay
Experimental: (ii) VEGF Production Inhibition Assay
The medium of assay (i) above was collected. VEGF165 levels were measure by ELISA. In brief, a monoclonal antibody specific for VEGF was pre-coated onto a microplate. A control cell culture medium and the medium of assay (i) were added into the wells and any VEGF present was bound to the wells by the immobilized antibody. After washing away any unbound substances, an enzyme-linked polyclonal antibody specific for VEGF was added to the wells. Following a wash to remove any unbound antibody-enzyme reagent, a substrate solution was added to the wells and color developed in proportion to the amount of VEGF bound in the initial step. The color development was stopped and the intensity of the color was measured.

[16] = tested on: CD31-positive cells in tumor tissue (microvessel density); experiment: Anti-vascular activity, CD31 immunofluorescence staining in tumor tissues; assay type: in vivo; design: dose or concentration left out as unconfirmed; conditions: tumor tissue from mice
Experimental: Anti-vascular activities of the aryl substituted sulfonamide compounds were evaluated by immunofluorescence staining in tumor tissues.
Rat anti-mouse CD31 antibodies were purchased from BD Biosciences. Tumor tissue samples were harvested from mice in both the control and test compound-treated groups. Frozen sections were fixed with acetone and chloroform. To block nonspecific proteins, each sample was incubated in 4.5% fish gelatin (BB International Co.) for 20 min. Expression of CD31 was detected in blood vessels using rat anti-mouse CD31 as the primary antibody and TexasRed (Jackson) labeled-goat anti-rat IgG antibody as the secondary antibody. The mean microvessel density (MVD) was determined by first counting and then averaging the number of CD31-positive cells in five random high power microscopic fields from different tumor samples.

[17] = tested on: drug-resistant cell lines (KB-VIN10, KB-TAX50, KB-7D, KB-CPT100, KB-CPT300, KB-L30); experiment: Growth inhibition on the drug-resistant KB cell lines (summary over the lines); assay type: cell-based; conditions: Homo sapiens, summary of Table 3, read-out: IC50 values on the drug-resistant cell lines (range over lines)
Experimental: as §3, with “dye assay. […] Compounds 16 and 24 were tested in this” for “dye”

[18] = KB cells, 72 h, methylene blue dye assay, read-out: Cell type (IC50 ± SD, nM) KB (oral)
[19] = KB-VIN10 (P-gp170/MDR overexpression), 72 h, methylene blue, read-out: IC50, growth inhibition of KB-VIN10 cells
[20] = KB cells, bands, read-out: IC50, inhibiting proliferation of KB cells (band)

Structure (SMILES): COc1ccc(S(=O)(=O)Nc2cccnc2Nc2ccc(O)cc2)cc1 [ABT-751, reference compound]
- IC50 [1, 18]: 251 ± 65 nM
- IC50 [2]: 218 ± 4 nM
- IC50 [3]: 166 ± 8 nM
- IC50 [4, 19]: 385 nM

Structure (SMILES): COc1ccc(S(=O)(=O)N2CCc3cccc(-c4ccc(C#N)cc4)c32)cc1 [Compound 17, 4-[1-(4-methoxy-benzenesulfonyl)-2,3-dihydro-1H-indol-7-yl]-benzonitrile]
- IC50 [1, 18]: 31.1 ± 5.4 nM
- IC50 [1, 20]: 1 to 99 nM
- IC50 [2]: 29.5 ± 14.8 nM
- IC50 [3]: 17.2 ± 8.6 nM
- melting point: 157.2 to 158.9 °C

Structure (SMILES): COc1ccc(S(=O)(=O)N2CCc3cccc(-c4ccncc4)c32)cc1 [Compound 24, 1-(4-methoxy-benzenesulfonyl)-7-pyridin-4-yl-2,3-dihydro-1H-indole]
- IC50 ([1]; KB (Parental), Table 3, read-out: Growth Inhibition (IC50)): 96 ± 14.1 nM
- IC50 [1, 18]: 96 ± 14.1 nM
- IC50 [1, 20]: 1 to 99 nM
- IC50 [2]: 101 ± 8 nM
- IC50 [3]: 69.5 ± 7.6 nM
- IC50 [5]: 150 ± 8.5 nM
- IC50 [6]: 132 ± 13.7 nM
- IC50 [7]: 201 ± 13.9 nM
- IC50 [8]: 510 ± 22.2 nM
- IC50 [4, 19]: 106 nM
- IC50 ([4]; KB-VIN10, Vincristine resistance, read-out: Growth Inhibition (IC50)): 106 ± 18 nM
- IC50 [9]: 188 ± 25.3 nM
- IC50 [10]: 257 ± 26.6 nM
- IC50 [11]: 237 ± 26.6 nM
- IC50 [12]: 95 ± 12.1 nM
- IC50 [13]: 93 ± 15.7 nM
- IC50 ([14]; Homo sapiens, HUVEC, 18 hrs, unit inferred): 500 nM
- tube formation inhibition ([14]; at 1.5 (unit not given)): completely inhibited tube formation
- inhibition at 0.5 µM [15]: > 50%
- decrease of vascular area compared to the blank control [16]: five-fold
- IC50 [17]: 90 to 250 nM
- melting point: 195.9 to 196.8 °C

Structure (SMILES): COc1ccc(S(=O)(=O)N2CCc3cccc(-c4cccs4)c32)cc1 [Compound 30, 1-(4-methoxy-benzenesulfonyl)-7-thiophen-2-yl-2,3-dihydro-1H-indole]
- IC50 [1, 20]: 100 to 700 nM
- melting point: 127.7 to 129.1 °C

Structure (SMILES): COc1ccc(S(=O)(=O)N2CCc3cccc(-c4ccc(N(C)C)cc4)c32)cc1 [Compound 31, {4-[1-(4-methoxy-benzenesulfonyl)-2,3-dihydro-1H-indol-7-yl]-phenyl}-dimethyl-amine]
- IC50 [1, 20]: 100 to 700 nM
- melting point: 178.4 to 179.7 °C

Structure (SMILES): COc1ccc(S(=O)(=O)N2CCc3cccc(-c4ccc(Cl)cc4)c32)cc1 [Compound 33, 7-(4-chloro-phenyl)-1-(4-methoxy-benzenesulfonyl)-2,3-dihydro-1H-indole]
- IC50 [1, 20]: 100 to 700 nM
- melting point: 177.1 to 178.3 °C

Structure (SMILES): COc1ccc(S(=O)(=O)N2CCc3cccc(-c4ccc(C(F)(F)F)cc4)c32)cc1 [Compound 34, 1-(4-methoxy-benzenesulfonyl)-7-(4-trifluoromethyl-phenyl)-2,3-dihydro-1H-indole]
- IC50 [1, 20]: 100 to 700 nM
- melting point: 179.7 to 181 °C

Structure (SMILES): COc1ccc(S(=O)(=O)N2CCc3cccc(-c4ccccn4)c32)cc1 [Compound 36, 1-(4-methoxy-benzenesulfonyl)-7-pyridin-2-yl-2,3-dihydro-1H-indole]
- IC50 [1, 20]: 1 to 99 nM
- melting point: 195.1 to 197 °C

Structure (SMILES): COc1ccc(S(=O)(=O)N2CCc3cccc(-c4ccc([N+](=O)[O-])cc4)c32)cc1 [Compound 37, 1-(4-methoxy-benzenesulfonyl)-7-(4-nitro-phenyl)-2,3-dihydro-1H-indole]
- IC50 [1, 20]: 1 to 99 nM
- melting point: 177.1 to 178.4 °C

Structure (SMILES): COc1ccc(S(=O)(=O)N2CCc3cccc(-c4ccc(C=O)cc4)c32)cc1 [Compound 38, 4-[1-(4-methoxy-benzenesulfonyl)-2,3-dihydro-1H-indol-7-yl]-benzaldehyde]
- IC50 [1, 20]: 1 to 99 nM
- melting point: 152 to 153 °C

Structure (SMILES): COc1ccc(S(=O)(=O)N2CCc3cccc(-c4ccc(CN(C)C)cc4)c32)cc1 [Compound 39, {4-[1-(4-methoxy-benzenesulfonyl)-2,3-dihydro-1H-indol-7-yl]-benzyl}-dimethyl-amine]
- IC50 ([1]; KB cells, bound stated, read-out: IC50, inhibiting proliferation of KB cells (bound)): ≥ 4000 nM
- melting point: 165 to 166 °C

Structure (SMILES): COc1ccc(S(=O)(=O)N2CCc3cccc(-c4ccc(C(=O)O)cc4)c32)cc1 [Compound 40, 4-[1-(4-methoxy-benzenesulfonyl)-2,3-dihydro-1H-indol-7-yl]-benzoic acid]
- IC50 [1, 20]: 100 to 700 nM
- melting point: 130.3 to 132.1 °C
